Tests used:
Type in all cases: cell-based, Staphylococcus aureus
BAA-1720 MRSA [1] = experiment: MRSA detection from Copan e-Swabs (Table 3)
Method: Bacterial strains were serially diluted and Copan e-Swabs™ were inoculated with 100 μL of LB with approximately the target number of cells of 1000 CFU, 500 CFU, 250 CFU, 125 CFU, 63 CFU, 31 CFU, 16 CFU, or 8 CFU. Swabs were then eluted in 1 mL modified Amies solution (included with commercially available Copan e-Swabs™). 135 μL of this solution was added to each well of a 96-well plate. 15 μL of cefoxitin was added to the wells to reach a final concentration of 1.8 μg/mL, 3.6 μg/mL, or 5.4 μg/mL. The plate was then sealed and incubated at 37° C. for 2 hours. 10 μL of recombinant phage (1.6×10^8 pfu/mL) was added to each well. The plate was then re-sealed and incubated at 37° C. for an additional 2 hours. A master mix was made containing 15 μL 5× lysis buffer, 50 μL luciferase assay buffer, and 1 μL luciferase substrate per well. 65 μL of master mix was added to each well. Luminescence from the reactions was read on a GLOMAX® Navigator and relative luminal units (RLU) for each reaction were plotted and analyzed. RLU values three times greater than an established background RLU level for modified Amies solution (>1500 RLU) were considered positive. The results, shown in Table 3, indicate that a positive MRSA determination was made with 17 CFU in a well, originating from approximately 125 CFU on a swab when incubated with the previously established cut-off of 1.8 μg/mL. Positive results are in bold.

BAA-1720 MRSA [2] = experiment: MRSA detection from BD BBL CultureSwabs (Table 4)
Method: Bacterial strains were serially diluted and BD BBL CultureSwabs™ were inoculated with 50 ul of LB with approximately the target number of cells of 1000 CFU, 500 CFU, 250 CFU, 125 CFU, 63 CFU, 31 CFU, 16 CFU, or 8 CFU. Swabs were eluted with 1 mL modified Amies solution (included with commercially available Copan e-Swabs™). 135 μL of the eluted solution was added to each well. 15 μL of cefoxitin was added to the wells to reach a final concentration of 1.8 μg/mL, 3.6 μg/mL, or 5.4 μg/mL. The plate was then sealed and incubated at 37° C. for 2 hours. 10 μL of recombinant phage (1.6×10^8 pfu/mL) was added to each well. The plate was then re-sealed and incubated at 37° C. for an additional 2 hours. A master mix was made containing 15 μL 5× lysis buffer, 50 μL luciferase assay buffer, and 1 μL luciferase substrate per well. 65 μL of master mix was added to each well. Luminescence from the reactions were read on a GLOMAX® Navigator and relative luminal units (RLU) for each reaction were plotted and analyzed. RLU values three times greater than an established background RLU level for modified Amies solution (>1500 RLU) were considered positive. The results, shown in Table 4, indicate that a positive MRSA determination was made with 23 CFU in a well, originating from approximately 125 CFU on a swab when incubated with the previously established cut-off of 1.8 μg/mL. Positive results are highlighted in grey.

[3] = tested on: BAA-1720 - MRSA in co-culture with 12600 - MSSA; experiment: Table 6, MRSA in co-culture with MSSA
Method: Bacterial strains were serially diluted and transferred to a 96-well plate at 135 μL per well. 15 μL of cefoxitin was added to the wells to reach a final concentration of 1.8 μg/mL. The plate was then sealed and incubated at 37° C. for 2 hours or 3 hours. 10 μL of recombinant phage (1.6×10^8 pfu/mL) was added to each well. The plate was then re-sealed and incubated at 37° C. for an additional 1 or 2 hours. A master mix was made containing 15 μL 5× lysis buffer, 50 μL luciferase assay buffer, and 1 μL luciferase substrate per well. 65 μL of master mix was added to each well. Luminescence from the reactions was read on a GLOMAX® Navigator and relative luminal units (RLU) for each reaction were plotted and analyzed. RLU values three times greater than an established background RLU level for LB (>750 RLU) were considered positive. The results, shown in Table 6, indicate that samples with MRSA (38 CFU) can be distinguished from samples containing MSSA (up to 5088 CFU) using a 3-hour antibiotic/1-hour phage incubation protocol. Positive results are in bold. In Table 6, CFU values (318 CFU and 156 CFU) were experimentally validated by direct plating.

[4] = target swab CFU 8, detected CFU 1
[5] = target swab CFU 16, detected CFU 1
[6] = target swab CFU 31, detected CFU 1
[7] = target swab CFU 63, detected CFU 9
[8] = target swab CFU 125, detected CFU 17
[9] = target swab CFU 250, detected CFU 41
[10] = target swab CFU 500, detected CFU 72
[11] = target swab CFU 1000, detected CFU 136
[12] = target swab CFU 8, detected CFU 3
[13] = target swab CFU 31, detected CFU 4
[14] = target swab CFU 63, detected CFU 5
[15] = target swab CFU 125, detected CFU 23
[16] = target swab CFU 250, detected CFU 28
[17] = target swab CFU 500, detected CFU 31
[18] = target swab CFU 1000, detected CFU 76
[19] = MSSA detected CFU 1272, MRSA 38
[20] = MSSA detected CFU 2544, MRSA 38
[21] = MSSA detected CFU 5088, MRSA 38
[22] = MSSA detected CFU 10176, MRSA 38

`CO[C@@]1(NC(=O)Cc2cccs2)C(=O)N2C(C(=O)O)=C(COC(N)=O)CS[C@@H]21` [Cefoxitin, cefoxitin] was tested, and the “Cefoxitin (RLU) 1.8 ug/mL” value (BAA-1720 MRSA [1]; [4]) was 559 RLU, the “Cefoxitin (RLU) 3.6 ug/mL” value (BAA-1720 MRSA [1]; [4]) was 429 RLU and the “Cefoxitin (RLU) 5.4 ug/mL” value (BAA-1720 MRSA [1]; [4]) was 336 RLU. The “Cefoxitin (RLU) 1.8 ug/mL” value (BAA-1720 MRSA [1]; [5]) was 1179 RLU, the “Cefoxitin (RLU) 3.6 ug/mL” value (BAA-1720 MRSA [1]; [5]) was 470 RLU and the “Cefoxitin (RLU) 5.4 ug/mL” value (BAA-1720 MRSA [1]; [5]) was 551 RLU. For the same molecule, the “Cefoxitin (RLU) 1.8 ug/mL” value (BAA-1720 MRSA [1]; [6]) was 880 RLU, the “Cefoxitin (RLU) 3.6 ug/mL” value (BAA-1720 MRSA [1]; [6]) was 558 RLU and the “Cefoxitin (RLU) 5.4 ug/mL” value (BAA-1720 MRSA [1]; [6]) was 1405 RLU. For the same molecule, the “Cefoxitin (RLU) 1.8 ug/mL” value (BAA-1720 MRSA [1]; [7]) was 1280 RLU, the “Cefoxitin (RLU) 3.6 ug/mL” value (BAA-1720 MRSA [1]; [7]) was 1568 RLU and the “Cefoxitin (RLU) 5.4 ug/mL” value (BAA-1720 MRSA [1]; [7]) was 1286 RLU. For the same molecule, the “Cefoxitin (RLU) 1.8 ug/mL” value (BAA-1720 MRSA [1]; [8]) was 2512 RLU, the “Cefoxitin (RLU) 3.6 ug/mL” value (BAA-1720 MRSA [1]; [8]) was 1337 RLU and the “Cefoxitin (RLU) 5.4 ug/mL” value (BAA-1720 MRSA [1]; [8]) was 2501 RLU. The “Cefoxitin (RLU) 1.8 ug/mL” value (BAA-1720 MRSA [1]; [9]) was 3766 RLU, the “Cefoxitin (RLU) 3.6 ug/mL” value (BAA-1720 MRSA [1]; [9]) was 4022 RLU and the “Cefoxitin (RLU) 5.4 ug/mL” value (BAA-1720 MRSA [1]; [9]) was 3374 RLU. For the same molecule, the “Cefoxitin (RLU) 1.8 ug/mL” value (BAA-1720 MRSA [1]; [10]) was 11590 RLU, the “Cefoxitin (RLU) 3.6 ug/mL” value (BAA-1720 MRSA [1]; [10]) was 7112 RLU and the “Cefoxitin (RLU) 5.4 ug/mL” value (BAA-1720 MRSA [1]; [10]) was 7648 RLU. The “Cefoxitin (RLU) 1.8 ug/mL” value (BAA-1720 MRSA [1]; [11]) was 23820 RLU, the “Cefoxitin (RLU) 3.6 ug/mL” value (BAA-1720 MRSA [1]; [11]) was 17540 RLU and the “Cefoxitin (RLU) 5.4 ug/mL” value (BAA-1720 MRSA [1]; [11]) was 18400 RLU. The “Cefoxitin (RLU) 1.8 ug/mL” value (BAA-1720 MRSA [2]; [12]) was 615 RLU, the “Cefoxitin (RLU) 3.6 ug/mL” value (BAA-1720 MRSA [2]; [12]) was 513 RLU and the “Cefoxitin (RLU) 5.4 ug/mL” value (BAA-1720 MRSA [2]; [12]) was 789 RLU. The “Cefoxitin (RLU) 1.8 ug/mL” value (BAA-1720 MRSA [2]; [5]) was 1711 RLU, the “Cefoxitin (RLU) 3.6 ug/mL” value (BAA-1720 MRSA [2]; [5]) was 1623 RLU and the “Cefoxitin (RLU) 5.4 ug/mL” value (BAA-1720 MRSA [2]; [5]) was 1172 RLU. The “Cefoxitin (RLU) 1.8 ug/mL” value (BAA-1720 MRSA [2]; [13]) was 3572 RLU, the “Cefoxitin (RLU) 3.6 ug/mL” value (BAA-1720 MRSA [2]; [13]) was 1469 RLU and the “Cefoxitin (RLU) 5.4 ug/mL” value (BAA-1720 MRSA [2]; [13]) was 1438 RLU. For the same molecule, the “Cefoxitin (RLU) 1.8 ug/mL” value (BAA-1720 MRSA [2]; [14]) was 900 RLU, the “Cefoxitin (RLU) 3.6 ug/mL” value (BAA-1720 MRSA [2]; [14]) was 1068 RLU and the “Cefoxitin (RLU) 5.4 ug/mL” value (BAA-1720 MRSA [2]; [14]) was 948 RLU. For the same molecule, the “Cefoxitin (RLU) 1.8 ug/mL” value (BAA-1720 MRSA [2]; [15]) was 3630 RLU, the “Cefoxitin (RLU) 3.6 ug/mL” value (BAA-1720 MRSA [2]; [15]) was 4720 RLU and the “Cefoxitin (RLU) 5.4 ug/mL” value (BAA-1720 MRSA [2]; [15]) was 4597 RLU. For the same molecule, the “Cefoxitin (RLU) 1.8 ug/mL” value (BAA-1720 MRSA [2]; [16]) was 6254 RLU, the “Cefoxitin (RLU) 3.6 ug/mL” value (BAA-1720 MRSA [2]; [16]) was 3843 RLU and the “Cefoxitin (RLU) 5.4 ug/mL” value (BAA-1720 MRSA [2]; [16]) was 3381 RLU. For the same molecule, the “Cefoxitin (RLU) 1.8 ug/mL” value (BAA-1720 MRSA [2]; [17]) was 7571 RLU, the “Cefoxitin (RLU) 3.6 ug/mL” value (BAA-1720 MRSA [2]; [17]) was 7693 RLU and the “Cefoxitin (RLU) 5.4 ug/mL” value (BAA-1720 MRSA [2]; [17]) was 5263 RLU. For the same molecule, the “Cefoxitin (RLU) 1.8 ug/mL” value (BAA-1720 MRSA [2]; [18]) was 13210 RLU, the “Cefoxitin (RLU) 3.6 ug/mL” value (BAA-1720 MRSA [2]; [18]) was 7193 RLU and the “Cefoxitin (RLU) 5.4 ug/mL” value (BAA-1720 MRSA [2]; [18]) was 6922 RLU. The “2 HR AB + 2 HR Phage 1.8 ug/mL” value ([3]; MSSA detected CFU 156, MRSA 38) was 5084 RLU, the “3 HR AB + 1 HR Phage 1.8 ug/mL” value ([3]; MSSA detected CFU 156, MRSA 38) was 3976 RLU and the “2 HR AB + 2 HR Phage 1.8 ug/mL” value ([3]; MSSA detected CFU 318, MRSA 38) was 7143 RLU. For the same molecule, the “3 HR AB + 1 HR Phage 1.8 ug/mL” value ([3]; MSSA detected CFU 318, MRSA 38) was 4567 RLU, the “2 HR AB + 2 HR Phage 1.8 ug/mL” value ([3]; MSSA detected CFU 636, MRSA 38) was 7217 RLU and the “3 HR AB + 1 HR Phage 1.8 ug/mL” value ([3]; MSSA detected CFU 636, MRSA 38) was 3946 RLU. The “2 HR AB + 2 HR Phage 1.8 ug/mL” value [3, 19] was 6263 RLU, the “3 HR AB + 1 HR Phage 1.8 ug/mL” value [3, 19] was 4930 RLU and the “2 HR AB + 2 HR Phage 1.8 ug/mL” value [3, 20] was 10730 RLU. The “3 HR AB + 1 HR Phage 1.8 ug/mL” value [3, 20] was 3749 RLU, the “2 HR AB + 2 HR Phage 1.8 ug/mL” value [3, 21] was 11400 RLU and the “3 HR AB + 1 HR Phage 1.8 ug/mL” value [3, 21] was 3548 RLU. For the same molecule, the “2 HR AB + 2 HR Phage 1.8 ug/mL” value [3, 22] was 13260 RLU and the “3 HR AB + 1 HR Phage 1.8 ug/mL” value [3, 22] was 5347 RLU.

From US11952611B2, “Methods and systems for detection of antibiotic resistance” (Laboratory Corporation of America Holdings, priority 2017, dated 2024)
